Tests used:
Boophilus microplus = Boophilus microplus - injection test; format: in vivo; conditions: application rate 20 μg/animal; injection into engorged adult female ticks; after 7 days
Procedure: (§1) Solvent: dimethyl sulphoxide
To produce an appropriate active ingredient formulation, 10 mg of active ingredient are mixed with 0.5 ml of solvent and the concentrate is diluted with solvent to the desired concentration.
1 μl of the active ingredient solution is injected into the abdomen of 5 engorged adult female cattle ticks (Boophilus microplus). The animals are transferred into dishes and kept in a climate-controlled room.
Efficacy is assessed after 7 days by laying of fertile eggs. Eggs which are not visibly fertile are stored in a climate-controlled cabinet until the larvae hatch after about 42 days. An efficacy of 100% means that none of the ticks has laid any fertile eggs; 0% means that all the eggs are fertile.

Spodoptera frugiperda = Spodoptera frugiperda - spray test; format: in vivo; conditions: caterpillars on maize leaf discs, after 7 days
Procedure: (§2) Solvent: 78.0 parts by weight of acetone and 1.5 parts by weight of dimethylformamide
(§3) Emulsifier: alkylaryl polyglycol ether
(§4) To produce an appropriate active ingredient formulation, 1 part by weight of active ingredient is dissolved using the specified parts by weight of solvent and made up with water containing an emulsifier concentration of 1000 ppm until the desired concentration is attained. To produce further test concentrations, the preparation is diluted with emulsifier-containing water.
Leaf discs of maize (Zea mays) are sprayed with an active ingredient formulation of the desired concentration and, after drying, populated with caterpillars of the armyworm (Spodoptera frugiperda).
After 7 days, efficacy in % is determined. 100% means that all the caterpillars have been killed; 0% means that no caterpillars have been killed.

[1] = logP determination by HPLC on a reversed-phase column (C18); format: physicochemical; conditions: for logP^a): HPLC-MS method a); for log P: HPLC-MS; for logP: HPLC, C18 reversed phase, acetonitrile/water with formic acid, EEC Directive 79/831 Annex V.A8
Phaedon cochleariae = Phaedon cochleariae - spray test; format: in vivo; conditions: larvae on Chinese cabbage leaf discs, after 7 days
Procedure: as §2, §3, §4
Discs of Chinese cabbage leaves (Brassica pekinensis) are sprayed with an active ingredient formulation of the desired concentration and, after drying, populated with larvae of the mustard beetle (Phaedon cochleariae).
After 7 days, efficacy in % is determined. 100% means that all the beetle larvae have been killed; 0% means that no beetle larvae have been killed.

Ctenocephalides felis = Ctenocephalides felis - oral test; format: in vivo; conditions: application rate 100 ppm in citrated cattle blood; after 2 days
Procedure: as §1
For the purpose of producing an appropriate active ingredient formulation, 10 mg of active ingredient are mixed with 0.5 ml of dimethyl sulphoxide. Dilution with citrated cattle blood gives the desired concentration.
About 20 unfed adult cat fleas (Ctenocephalides felis) are placed into a chamber which is closed at the top and bottom with gauze. A metal cylinder whose bottom end is closed with parafilm is placed onto the chamber. The cylinder contains the blood/active ingredient preparation, which can be imbibed by the fleas through the parafilm membrane.
After 2 days, the kill in % is determined. 100% means that all of the fleas have been killed; 0% means that none of the fleas have been killed.

Tetranychus urticae = Tetranychus urticae - spray test, OP-resistant; format: in vivo; conditions: bean leaf discs, after 6 days
Procedure: as §2, §3, §4
Discs of bean leaves (Phaseolus vulgaris) infested by all stages of the greenhouse red spider mite (Tetranychus urticae) are sprayed with an active ingredient formulation of the desired concentration.
After 6 days, efficacy in % is determined. 100% means that all the spider mites have been killed; 0% means that none of the spider mites have been killed.

[2] = reversed-phase column (C18), Table I-T3

Structure (SMILES)	efficacy (Spodoptera frugiperda; application rate 100 g/ha)	efficacy (Phaedon cochleariae; application rate 100 g/ha)	log P [1, 2]	efficacy (Tetranychus urticae; application rate 100 g/ha)	other results
Cc1cc(C(F)(C(F)(F)F)C(F)(F)F)cc(C)c1-c1ccn(-c2ccc(Cl)c(C(=O)NC3(C#N)CC3)c2)n1 [I-T2-2]	100%	100%			efficacy (laying of fertile eggs) (Boophilus microplus): 100%; logP^a) [1]: 4.8
Cc1cc(C(F)(C(F)(F)F)C(F)(F)F)cc(C)c1-n1cc(-c2cc(C(=O)NC3CC3)c(F)cc2Cl)cn1 [I-T3-11]					efficacy (laying of fertile eggs) (Boophilus microplus): 100%; logP^a) [1]: 4.9; logP^a) [1, 2]: 4.9; efficacy (kill) (Ctenocephalides felis): 95%
Cc1ccc(C(=O)NC2CC2)cc1-c1cnn(-c2c(C)cc(C(F)(C(F)(F)F)C(F)(F)F)cc2C)c1 [I-T3-16]					logP^a) [1]: 4.4; logP^a) [1, 2]: 4.4; efficacy (kill) (Ctenocephalides felis): 80%
Cc1cc(C(F)(C(F)(F)F)C(F)(F)F)cc(C)c1-n1cc(-c2cc(C(=O)NC3(C#N)CC3)ccc2F)cn1 [I-T3-19]					efficacy (laying of fertile eggs) (Boophilus microplus): 100%; efficacy (Spodoptera frugiperda; application rate 500 g/ha): 100%; logP^a) [1]: 4.3; logP^a) [1, 2]: 4.3; efficacy (Phaedon cochleariae; application rate 500 g/ha): 100%; efficacy (kill) (Ctenocephalides felis): 95%
N#CC1(NC(=O)c2cccc(-c3cnn(-c4c(Cl)cc(C(F)(C(F)(F)F)C(F)(F)F)cc4Cl)c3)c2F)CC1 [I-T3-22]					efficacy (Spodoptera frugiperda; application rate 500 g/ha): 100%; logP^a) [1]: 4.1; logP^a) [1, 2]: 4.1; efficacy (Tetranychus urticae; application rate 500 g/ha): 100%; efficacy (Phaedon cochleariae; application rate 500 g/ha): 100%
O=C(NC1CC1)c1cc(-c2cnn(-c3c(Cl)cc(C(F)(C(F)(F)F)C(F)(F)F)cc3Cl)c2)cnc1N1CCCC1 [I-T3-135]			4.3		logP^a) ([1]; reversed-phase column (C18)): 4.3; efficacy (kill) (Ctenocephalides felis): 100%
O=C(NC1CC1)c1cc(-c2cnn(-c3ncc(C(F)(C(F)(F)F)C(F)(F)F)cc3Cl)c2)ccc1Cl [I-T3-152]	100%	100%	4.1		logP^a) ([1]; reversed-phase column (C18)): 4.1
N#CC1(NC(=O)c2cc(-c3cnn(-c4c(Cl)cc(C(F)(F)F)cc4[N+](=O)[O-])c3)ccc2Cl)CC1 [I-T3-169]	83%	100%	3.2	100%	
CCSc1cc(C(F)(F)F)cc(Cl)c1-n1cc(-c2ccc(Cl)c(C(=O)NC3CC3)c2)cn1 [I-T3-172]		100%	3.9	90%	
CCSc1cc(C(F)(F)F)cc(C#N)c1-n1cc(-c2ccc(Cl)c(C(=O)NC3(C#N)CC3)c2)cn1 [I-T3-177]	83%	100%	3.4	100%	
CCS(=O)(=O)c1cc(C(F)(F)F)cc(Cl)c1-n1cc(-c2ccc(Cl)c(C(=O)NC3CC3)c2)cn1 [I-T3-178]		100%	3.2	100%	
CCS(=O)(=O)c1cc(C(F)(F)F)cc(C#N)c1-n1cc(-c2ccc(Cl)c(C(=O)NC3CC3)c2)cn1 [I-T3-180]		100%	2.8	100%	
CC[S+]([O-])c1cc(C(F)(F)F)cc(C#N)c1-n1cc(-c2ccc(Cl)c(C(=O)NC3CC3)c2)cn1 (centres unmarked) [I-T3-181]		100%	2.7	100%	
CCS(=O)(=O)c1cc(C(F)(F)F)cc(Cl)c1-n1cc(-c2ccc(Cl)c(C(=O)NC3(C#N)CC3)c2)cn1 [I-T3-183]		100%	3.1	100%	
CCS(=O)(=O)c1cc(C(F)(F)F)cc(C#N)c1-n1cc(-c2ccc(Cl)c(C(=O)NC3(C#N)CC3)c2)cn1 [I-T3-190]		100%	2.9	100%	
CCSc1cc(C(F)(C(F)(F)F)C(F)(F)F)cc(SCC)c1-n1cc(-c2ccc(Cl)c(C(=O)NC3(C#N)CC3)c2)cn1 [I-T3-191]	100%	100%	4.7		
CCSc1cc(C(F)(C(F)(F)F)C(F)(F)F)cc(Cl)c1-n1cc(-c2ccc(Cl)c(C(=O)NC3(C#N)CC3)c2)cn1 [I-T3-192]	100%	100%	4.5	100%	
CC[S+]([O-])c1cc(C(F)(C(F)(F)F)C(F)(F)F)cc(Cl)c1-n1cc(-c2ccc(Cl)c(C(=O)NC3(C#N)CC3)c2)cn1 (centres unmarked) [I-T3-195]		100%	3.8	90%	
Cc1cc(C(F)(C(F)(F)F)C(F)(F)F)cc(C(F)(F)F)c1-n1cc(-c2cnc(Cl)c(C(=O)NCC3(C#N)CC3)c2)cn1 [I-T3-197]	100%	100%	4.0	100%	
CCS(=O)(=O)c1cc(C(F)(C(F)(F)F)C(F)(F)F)cc(S(=O)(=O)CC)c1-n1cc(-c2ccc(Cl)c(C(=O)NC3(C#N)CC3)c2)cn1 [I-T3-198]	100%	100%	3.7		
O=C(NC1CC1)c1cc(-c2cnn(-c3c(Cl)cc(C(O)(C(F)(F)F)C(F)(F)F)cc3Cl)c2)cnc1Cl [I-T3-221]		100%	3.0	100%	
N#CC1(NC(=O)c2cc(-c3cnn(-c4c(Cl)cc(C(O)(C(F)(F)F)C(F)(F)F)cc4Cl)c3)cnc2Cl)CC1 [I-T3-222]		100%	3.0	100%	
CN(C(=O)c1cc(-c2cnn(-c3c(Cl)cc(C(O)(C(F)(F)F)C(F)(F)F)cc3Cl)c2)cnc1Cl)C1(C#N)CC1 [I-T3-223]		100%	3.3	100%	
CN(C(=O)c1cc(-c2ccn(-c3c(Cl)cc(C(F)(C(F)(F)F)C(F)(F)F)cc3Cl)c2)cnc1Cl)C1CC1 [I-T46-3]	100%	100%			logP [1]: 5.0
O=C(NC1CC1)c1cc(-c2ccn(-c3c(Cl)cc(C(F)(C(F)(F)F)C(F)(F)F)cc3Cl)c2)cnc1Cl [I-T46-4]	100%	100%		100%	logP [1]: 4.5
N#CC1(NC(=O)c2cc(-c3ccn(-c4c(Cl)cc(C(F)(C(F)(F)F)C(F)(F)F)cc4Cl)c3)cnc2Cl)CC1 [I-T46-5]	100%	100%		100%	logP [1]: 4.4
